# Results: patent US10689354B2, “Aminoazole derivative” (Teijin Pharma Limited, priority 2015, dated 2020)
# Assays:
# [1] = target: T1, androgen receptor (AR-LBD) (Rattus norvegicus, UniProt P15207); experiment: Evaluation of androgen receptor affinity (PolarScreen Androgen Receptor Competitor Assay Kit, Red; fluorescence polarization); conditions: 22° C. for 5 hours, relative to binding rate of 1 μM DHT, read-out: AR affinity (pEC50) (converted)
# T1 construct: 5 μL of 2×AR-LBD/Fluoromone AL Red Complex contained in the kit; purchased Invitrogen
# T1 sequence (P15207 651-882 limits assumed): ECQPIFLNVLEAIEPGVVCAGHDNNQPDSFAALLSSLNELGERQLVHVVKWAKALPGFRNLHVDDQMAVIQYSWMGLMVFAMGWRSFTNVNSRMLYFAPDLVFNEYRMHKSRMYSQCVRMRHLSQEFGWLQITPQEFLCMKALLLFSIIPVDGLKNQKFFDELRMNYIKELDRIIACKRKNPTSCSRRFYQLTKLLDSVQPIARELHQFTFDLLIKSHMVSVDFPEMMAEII
# Method in brief: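 Duplicate wells; compound plus AR-LBD tracer complex incubated 22° C for 5 h, then FP measured. Effect compared with 1 μM DHT; 50%-effect concentration expressed as pEC50.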
# human androgen receptor = target: T2, human androgen receptor (Homo sapiens, UniProt P10275); experiment: Reporter assay of an androgen receptor responsive sequence (luciferase, transiently transfected HEK293 cells); format: cell-based; conditions: 24 hours incubation, relative to activity of 100 nM DHT, read-out: AR transcriptive activity (pEC50) (converted)
# T2 construct: expressed in transfected cells; host or cells: HEK293
# T2 sequence (P10275 1-920): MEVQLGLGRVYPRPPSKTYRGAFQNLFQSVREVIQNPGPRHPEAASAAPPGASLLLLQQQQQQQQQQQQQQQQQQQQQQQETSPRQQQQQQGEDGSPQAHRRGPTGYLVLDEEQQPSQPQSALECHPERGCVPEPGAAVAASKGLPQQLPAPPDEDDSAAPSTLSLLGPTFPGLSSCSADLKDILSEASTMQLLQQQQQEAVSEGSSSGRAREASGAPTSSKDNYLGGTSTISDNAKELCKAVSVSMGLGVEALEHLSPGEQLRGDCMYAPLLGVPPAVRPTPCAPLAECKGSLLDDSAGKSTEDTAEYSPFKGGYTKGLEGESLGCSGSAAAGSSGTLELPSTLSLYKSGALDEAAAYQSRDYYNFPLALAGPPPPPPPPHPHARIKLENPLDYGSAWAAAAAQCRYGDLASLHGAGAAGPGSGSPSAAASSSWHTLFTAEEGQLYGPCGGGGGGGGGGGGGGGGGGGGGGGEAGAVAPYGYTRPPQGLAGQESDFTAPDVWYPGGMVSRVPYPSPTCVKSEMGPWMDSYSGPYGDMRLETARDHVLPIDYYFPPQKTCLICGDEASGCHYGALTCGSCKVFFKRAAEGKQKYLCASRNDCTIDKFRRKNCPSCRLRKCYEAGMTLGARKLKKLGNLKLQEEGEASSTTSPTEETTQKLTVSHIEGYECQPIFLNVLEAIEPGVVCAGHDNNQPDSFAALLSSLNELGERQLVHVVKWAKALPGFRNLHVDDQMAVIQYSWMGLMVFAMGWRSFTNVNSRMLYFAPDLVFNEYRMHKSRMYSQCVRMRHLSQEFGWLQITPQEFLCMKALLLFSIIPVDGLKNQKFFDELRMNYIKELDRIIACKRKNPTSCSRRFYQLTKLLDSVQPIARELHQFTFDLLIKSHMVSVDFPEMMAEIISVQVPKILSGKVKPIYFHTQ
# Method in brief: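 Agonism scored as pEC50, fitted by 4-parameter curve against the response to 100 nM DHT, from dual-luciferase readout after 24 h compound treatment. Cells were HEK293 co-transfected (3 h) with human AR expression vector, androgen-responsive firefly reporter and Renilla control, in charcoal-stripped serum.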
Compound,EC50 [1] [nM],EC50 (human androgen receptor) [nM]
"Cc1sc(N(Cc2ccccc2)c2ccc(C#N)cc2)nc1C(=O)NS(=O)(=O)C(F)(F)F [Compound 364, 2-(N-benzyl-4-cyano-anilino)-5-methyl-N-(trifluoromethylsulfonyl)thiazole-4-carboxamide]",31.6,> 10000
"Cc1oc(N(Cc2ccc(Cl)c(Cl)c2)c2ccc(C#N)cc2)nc1C(=O)NS(C)(=O)=O [Compound 608, 2-[4-cyano-N-[(3,4-dichlorophenyl)methyl]anilino]-5-methyl-N-methylsulfonyl-oxazole-4-carboxamide]",31.6,316
"Cc1sc(N(Cc2ccc(C(F)F)c(F)c2)c2ccc(C#N)cc2)nc1C(=O)NS(C)(=O)=O [Compound 155, 2-[4-cyano-N-[[4-(difluoromethyl)-3-fluoro-phenyl]methyl]anilino]-5-methyl-N-methylsulfonyl-thiazole-4-carboxamide]",31.6,15.8
"Cc1sc(N(Cc2ccc(-c3ccc(F)cc3)nc2)c2ccc(C#N)cc2)nc1C(=O)NS(C)(=O)=O [Compound 592, 2-[4-cyano-N-[[6-(4-fluorophenyl)-3-pyridyl]methyl]anilino]-5-methyl-N-methylsulfonyl-thiazole-4-carboxamide]",100,794
"Cc1sc(N(CCc2ccc(C(F)(F)F)cc2)Cc2ccccc2)nc1C(=O)NS(C)(=O)=O [Compound 333, 2-[benzyl-[2-[4-(trifluoromethyl)phenyl]ethyl]amino]-5-methyl-N-methylsulfonyl-thiazole-4-carboxamide]",25.1,100
"Cc1sc(N(Cc2ccc3c(c2)C(O)CCO3)c2ccc(C#N)cc2)nc1C(=O)NS(C)(=O)=O (stereo not drawn) [Compound 486, 2-[4-cyano-N-[(4-hydroxychroman-6-yl)methyl]anilino]-5-methyl-N-methylsulfonyl-thiazole-4-carboxamide]",251,251
"Cc1sc(N(CCc2ccc(F)cc2)c2ccc(C#N)cc2)nc1C(=O)NS(C)(=O)=O [Compound 81, 2-[4-cyano-N-[2-(4-fluorophenyl)ethyl]anilino]-5-methyl-N-methylsulfonyl-thiazole-4-carboxamide]",158,1580
"Cc1sc(N(CCc2cccnc2)Cc2ccccc2)nc1C(=O)NS(C)(=O)=O [Compound 147, 2-[benzyl-[2-(3-pyridyl)ethyl]amino]-5-methyl-N-methylsulfonyl-thiazole-4-carboxamide]",> 2000,> 10000
"Cc1oc(N(CCc2ccc(C#N)cc2)Cc2ccc(Cl)cc2)nc1C(=O)NS(C)(=O)=O [Compound 548, 2-[(4-chlorophenyl)methyl-[2-(4-cyanophenyl)ethyl]amino]-5-methyl-N-methylsulfonyl-oxazole-4-carboxamide]",25.1,126
"Cc1sc(N(Cc2ccccc2)c2ccc(C#N)cc2)nc1C(=O)NS(=O)(=O)C1CC1 [Compound 363, 2-(N-benzyl-4-cyano-anilino)-N-cyclopropylsulfonyl-5-methyl-thiazole-4-carboxamide]",63.1,1260
"Cc1sc(N(Cc2cc(F)ccc2Cl)c2ccc(C#N)cc2)nc1C(=O)NS(C)(=O)=O [Compound 108, 2-[N-[(2-chloro-5-fluoro-phenyl)methyl]-4-cyano-anilino]-5-methyl-N-methylsulfonyl-thiazole-4-carboxamide]",100,501
"Cc1sc(N(CCCC(C)C)c2ccc(C#N)cc2)nc1C(=O)NS(C)(=O)=O [Compound 438, 2-(4-cyano-N-isohexyl-anilino)-5-methyl-N-methylsulfonyl-thiazole-4-carboxamide]",25.1,398

# More lines, now with the values ahead:
EC50 [1] [nM],EC50 (human androgen receptor) [nM],Compound
50.1,398,"Cc1sc(N(CCc2ccc(Cl)c(Cl)c2)Cc2ccccc2)nc1C(=O)NS(C)(=O)=O [Compound 710, 2-[benzyl-[2-(3,4-dichlorophenyl)ethyl]amino]-5-methyl-N-methylsulfonyl-thiazole-4-carboxamide]"
39.8,631,"Cc1sc(N(CCC2CCCCC2)Cc2ccc(Cl)cc2)nc1C(=O)NS(C)(=O)=O [Compound 728, 2-[(4-chlorophenyl)methyl-(2-cyclohexylethyl)amino]-5-methyl-N-methylsulfonyl-thiazole-4-carboxamide]"
794,7940,"Cc1oc(N(CC[C@@H]2CCCC[C@H]2O)c2ccc(C#N)cc2)nc1C(=O)NS(C)(=O)=O (racemic) [Compound 624, 2-[4-cyano-N-[2-[trans-2-hydroxycyclohexyl]ethyl]anilino]-5-methyl-N-methylsulfonyl-oxazole-4-carboxamide]"
39.8,251,"Cc1sc(N(CCc2ccc(OC(F)(F)F)cc2)Cc2ccccc2)nc1C(=O)NS(C)(=O)=O [Compound 684, 2-[benzyl-[2-[4-(trifluoromethoxy)phenyl]ethyl]amino]-5-methyl-N-methylsulfonyl-thiazole-4-carboxamide]"
31.6,1000,"CCS(=O)(=O)NC(=O)c1nc(N(CCc2ccc(C#N)cc2)Cc2ccc(OC(F)(F)F)cc2)sc1C [Compound 726, 2-[2-(4-cyanophenyl)ethyl-[[4-(trifluoromethoxy)phenyl]methyl]amino]-N-ethylsulfonyl-5-methyl-thiazole-4-carboxamide]"
398,1580,"CCc1oc(N(Cc2ccc(Br)cn2)c2ccc(C#N)cc2)nc1C(=O)NS(C)(=O)=O [Compound 636, 2-[N-[(5-bromo-2-pyridyl)methyl]-4-cyano-anilino]-5-ethyl-N-methylsulfonyl-oxazole-4-carboxamide]"
1260,3980,"COCCCS(=O)(=O)NC(=O)c1nc(N(Cc2nc(C3CC3)no2)c2ccc(C#N)cc2)sc1C [Example 197, 2-[4-cyano-N-[(3-cyclopropyl-1,2,4-oxadiazol-5-yl)methyl]anilino]-N-(3-methoxypropylsulfonyl)-5-methyl-thiazole-4-carboxamide]"
126,631,"COCCCS(=O)(=O)NC(=O)c1nc(N(Cc2ncc(C(F)(F)F)cc2F)c2ccc(C#N)cc2)sc1C [Example 171, 2-[4-cyano-N-[[3-fluoro-5-(trifluoromethyl)-2-pyridyl]methyl]anilino]-N-(3-methoxypropylsulfonyl)-5-methyl-thiazole-4-carboxamide]"
200,> 10000,"Cc1sc(N(CCc2ccc(C#N)cc2)Cc2ccc(OC(F)(F)F)cc2)nc1C(=O)NS(=O)(=O)Cc1cccc(F)c1 [Compound 727, 2-[2-(4-cyanophenyl)ethyl-[[4-(trifluoromethoxy)phenyl]methyl]amino]-N-[(3-fluorophenyl)methylsulfonyl]-5-methyl-thiazole-4-carboxamide]"
50.1,158,"Cc1sc(N(CCc2ccc(C#N)cc2)Cc2ccccc2)nc1C(=O)NS(C)(=O)=O [Example 301, 2-[benzyl-[2-(4-cyanophenyl)ethyl]amino]-5-methyl-N-methylsulfonyl-thiazole-4-carboxamide]"
126,2510,"Cc1sc(N(CCc2ccc(C#N)cc2)Cc2ccc(Cl)cc2)nc1C(=O)NS(=O)(=O)C(F)(F)F [Compound 715, 2-[(4-chlorophenyl)methyl-[2-(4-cyanophenyl)ethyl]amino]-5-methyl-N-(trifluoromethylsulfonyl)thiazole-4-carboxamide]"
200,> 10000,"Cc1oc(N(Cc2ccccc2OC(F)F)c2ccc(C#N)cc2)nc1C(=O)NS(C)(=O)=O [Compound 614, 2-[4-cyano-N-[[2-(difluoromethoxy)phenyl]methyl]anilino]-5-methyl-N-methylsulfonyl-oxazole-4-carboxamide]"
